According to ChEMBL document CHEMBL4800723, “Data for DCP probe BI-1942” (2021):
Calls of active or inactive are those of the source. The calls are words filed in the database; no cut-off is given here.

Tests used:
Chymase = Chymase (Homo sapiens, UniProt P23946); experiment: Angiotensin II formation by CMA1 in human plasma; format: cell-free
[1] = target: Prostaglandin G/H synthase 2 (Homo sapiens) (UniProt P35354); experiment: COX-2 Eurofins SafetyScreen44 (BI); conditions: Compound concentration 10.0 uM
[2] = target: Kappa-type opioid receptor (Homo sapiens, UniProt P41145); experiment: KAPPA(KOP)_HU Eurofins SafetyScreen44 (BI); conditions: Compound concentration 10.0 uM
[3] = target: Prothrombin (Homo sapiens) (UniProt P00734); experiment: THROMBIN Eurofins SafetyScreen44 (BI); conditions: Compound concentration 10.0 uM
[4] = target: 5-hydroxytryptamine receptor 1A (Homo sapiens) (UniProt P08908); experiment: 5HT1A/H Eurofins SafetyScreen44 (BI); conditions: Compound concentration 10.0 uM
[5] = target: 5-hydroxytryptamine receptor 2B (Homo sapiens) (UniProt P41595); experiment: 5HT2B/H AG Eurofins SafetyScreen44 (BI); conditions: filed as agonist, Compound concentration 10.0 uM
[6] = target: Serotonin 3 (5-HT3) receptor (Homo sapiens) (UniProt P46098+A5X5Y0+O95264+Q70Z44+Q8WXA8); experiment: 5HT3/H Eurofins SafetyScreen44 (BI); format: protein-complex assay; conditions: Compound concentration 10.0 uM
[7] = target: Angiotensin-converting enzyme (Homo sapiens) (UniProt P12821); experiment: ACE(HU_AMTCH400) Eurofins SafetyScreen44 (BI); conditions: Compound concentration 10.0 uM
[8] = target: Beta-2 adrenergic receptor (Homo sapiens) (UniProt P07550); experiment: BETA2/HUM Eurofins SafetyScreen44 (BI); conditions: filed as antagonist, Compound concentration 10.0 uM
Caspase-1 (Homo sapiens) = Caspase-1 (Homo sapiens) (UniProt P29466); experiment: CASPASE-1(H) Eurofins SafetyScreen44 (BI); conditions: Compound concentration 10.0 uM
[9] = target: Caspase-10 (Homo sapiens) (UniProt Q92851); experiment: CASPASE-10(H) Eurofins SafetyScreen44 (BI); conditions: Compound concentration 10.0 uM
Caspase-3 (Homo sapiens) = Caspase-3 (Homo sapiens) (UniProt P42574); experiment: CASPASE-3 Eurofins SafetyScreen44 (BI); conditions: Compound concentration 10.0 uM
[10] = target: Procathepsin L (Homo sapiens) (UniProt P07711); experiment: CATHEPSIN-L Eurofins SafetyScreen44 (BI); conditions: Compound concentration 10.0 uM
[11] = target: Cathepsin D (Homo sapiens) (UniProt P07339); experiment: CATHEPSIND Eurofins SafetyScreen44 (BI); conditions: Compound concentration 10.0 uM
[12] = target: Cathepsin E (Homo sapiens) (UniProt P14091); experiment: CATHEPSINE Eurofins SafetyScreen44 (BI); conditions: Mus musculus; Compound concentration 10.0 uM
[13] = target: Cathepsin Z (Homo sapiens) (UniProt Q9UBR2); experiment: CATHEPSINX(H) Eurofins SafetyScreen44 (BI); conditions: Compound concentration 10.0 uM
[14] = target: Dipeptidyl peptidase 1 (Homo sapiens) (UniProt P53634); experiment: CATHEPSIN_C_CE Eurofins SafetyScreen44 (BI); conditions: Compound concentration 10.0 uM
[15] = target: Sodium-dependent dopamine transporter (Homo sapiens) (UniProt Q01959); experiment: DATRANS/HUM Eurofins SafetyScreen44 (BI); conditions: Compound concentration 10.0 uM
[16] = target: Dipeptidyl peptidase 4 (Homo sapiens) (UniProt P27487); experiment: DIPEPTIDYLPEPTIDASE Eurofins SafetyScreen44 (BI); conditions: Compound concentration 10.0 uM
[17] = target: Endothelin-converting enzyme 1 (Homo sapiens) (UniProt P42892); experiment: ECE(H) Eurofins SafetyScreen44 (BI); conditions: Compound concentration 10.0 uM
[18] = target: Neutrophil elastase (Homo sapiens) (UniProt P08246); experiment: ELASTASE(H) Eurofins SafetyScreen44 (BI); conditions: Compound concentration 10.0 uM
[19] = target: Histamine H1 receptor (Homo sapiens) (UniProt P35367); experiment: H1/PYRIL/HS Eurofins SafetyScreen44 (BI); conditions: Compound concentration 10.0 uM
[20] = target: Histamine H2 receptor (Homo sapiens) (UniProt P25021); experiment: H2/APT/HS Eurofins SafetyScreen44 (BI); conditions: filed as antagonist, Compound concentration 10.0 uM
[21] = target: Muscarinic acetylcholine receptor M3 (Homo sapiens) (UniProt P20309); experiment: M3/H Eurofins SafetyScreen44 (BI); conditions: Compound concentration 10.0 uM
[22] = target: Mu-type opioid receptor (Homo sapiens) (UniProt P35372); experiment: MU/H Eurofins SafetyScreen44 (BI); conditions: Compound concentration 10.0 uM
Rattus norvegicus = species on record: Rattus norvegicus; experiment: NA+/SITE2/R Eurofins SafetyScreen44 (BI); conditions: Compound concentration 10.0 uM
[23] = target: 3',5'-cyclic-AMP phosphodiesterase 4D (Homo sapiens) (UniProt Q08499); experiment: PDE4D2 Eurofins SafetyScreen44 (BI); conditions: Compound concentration 10.0 uM
Trypsin (Homo sapiens) = Trypsin (Homo sapiens) (UniProt P07477+P07478+P35030); experiment: TRYPSIN_CE Eurofins SafetyScreen44 (BI); format: protein assay; conditions: Compound concentration 10.0 uM
[24] = target: 5-hydroxytryptamine receptor 1A (Homo sapiens) (UniProt P08908); conditions: Compound concentration 10.0 uM
[25] = target: 5-hydroxytryptamine receptor 1D (Homo sapiens, UniProt P28221); conditions: Compound concentration 10.0 uM
[26] = target: 5-hydroxytryptamine receptor 1E (Homo sapiens) (UniProt P28566); conditions: Compound concentration 10.0 uM
[27] = target: 5-hydroxytryptamine receptor 7 (Homo sapiens) (UniProt P34969); conditions: Compound concentration 10.0 uM
[28] = target: D(1A) dopamine receptor (Homo sapiens) (UniProt P21728); conditions: Compound concentration 10.0 uM
[29] = target: D(4) dopamine receptor (Homo sapiens) (UniProt P21917); conditions: Compound concentration 10.0 uM
[30] = target: D(1B) dopamine receptor (Homo sapiens) (UniProt P21918); conditions: Compound concentration 10.0 uM
[31] = target: Sodium-dependent noradrenaline transporter (Homo sapiens) (UniProt P23975); conditions: Compound concentration 10.0 uM
[32] = target: Mu-type opioid receptor (Homo sapiens) (UniProt P35372); conditions: Compound concentration 10.0 uM
[33] = target: GABA-A receptor; anion channel (Rattus norvegicus) (UniProt O09028+P15431+P18506+P18508+P19969+P20236+P23574+P23576+P28471+P28473+P30191+P62813+P63079+P63138+Q91ZM7+Q9ES14); conditions: Compound concentration 10.0 uM
[34] = target: Histamine H1 receptor (Homo sapiens) (UniProt P35367); conditions: Compound concentration 10.0 uM
[35] = target: Histamine H2 receptor (Homo sapiens) (UniProt P25021); conditions: Compound concentration 10.0 uM
[36] = target: Alpha-2B adrenergic receptor (Homo sapiens) (UniProt P18089); conditions: Compound concentration 10.0 uM
[37] = target: Muscarinic acetylcholine receptor M1 (Homo sapiens) (UniProt P11229); conditions: Compound concentration 10.0 uM
[38] = target: Muscarinic acetylcholine receptor M4 (Homo sapiens) (UniProt P08173); conditions: Compound concentration 10.0 uM
[39] = target: Muscarinic acetylcholine receptor M5 (Homo sapiens) (UniProt P08912); conditions: Compound concentration 10.0 uM
[40] = target: Beta-3 adrenergic receptor (Homo sapiens) (UniProt P13945); conditions: Compound concentration 10.0 uM

Mu-type opioid receptor (Homo sapiens), sequence (P35372 whole entry): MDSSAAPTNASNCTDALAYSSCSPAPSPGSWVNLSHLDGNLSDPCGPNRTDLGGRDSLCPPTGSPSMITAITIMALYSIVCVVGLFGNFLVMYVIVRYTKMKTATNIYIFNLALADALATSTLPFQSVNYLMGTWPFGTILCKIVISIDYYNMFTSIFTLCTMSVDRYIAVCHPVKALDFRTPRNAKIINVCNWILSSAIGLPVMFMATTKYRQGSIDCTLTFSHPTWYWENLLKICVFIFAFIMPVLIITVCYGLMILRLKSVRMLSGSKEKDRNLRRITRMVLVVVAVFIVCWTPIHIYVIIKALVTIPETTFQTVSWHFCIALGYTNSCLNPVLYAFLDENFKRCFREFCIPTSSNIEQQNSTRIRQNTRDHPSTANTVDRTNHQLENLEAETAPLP
5-hydroxytryptamine receptor 1A (Homo sapiens), sequence (P08908 whole entry): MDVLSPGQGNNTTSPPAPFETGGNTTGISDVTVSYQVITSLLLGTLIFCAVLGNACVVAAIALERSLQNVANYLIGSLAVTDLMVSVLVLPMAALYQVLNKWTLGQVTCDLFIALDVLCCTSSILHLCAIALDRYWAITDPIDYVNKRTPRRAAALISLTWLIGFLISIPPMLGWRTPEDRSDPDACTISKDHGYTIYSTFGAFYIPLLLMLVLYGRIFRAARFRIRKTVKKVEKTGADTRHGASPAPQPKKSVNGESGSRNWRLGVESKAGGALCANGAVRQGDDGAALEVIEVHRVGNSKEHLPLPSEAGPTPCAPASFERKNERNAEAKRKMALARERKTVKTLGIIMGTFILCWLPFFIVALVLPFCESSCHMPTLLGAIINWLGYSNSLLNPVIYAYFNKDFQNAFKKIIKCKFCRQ
Histamine H2 receptor (Homo sapiens), sequence (P25021 whole entry): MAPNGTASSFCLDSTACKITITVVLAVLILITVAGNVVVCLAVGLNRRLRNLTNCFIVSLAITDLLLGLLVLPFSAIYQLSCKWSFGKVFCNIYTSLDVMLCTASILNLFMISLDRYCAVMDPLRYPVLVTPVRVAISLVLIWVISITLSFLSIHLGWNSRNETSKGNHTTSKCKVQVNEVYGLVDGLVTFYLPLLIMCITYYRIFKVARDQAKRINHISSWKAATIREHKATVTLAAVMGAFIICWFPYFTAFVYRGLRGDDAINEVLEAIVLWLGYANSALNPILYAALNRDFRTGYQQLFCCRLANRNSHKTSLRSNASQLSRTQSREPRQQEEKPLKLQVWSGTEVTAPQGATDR
Histamine H1 receptor (Homo sapiens), sequence (P35367 whole entry): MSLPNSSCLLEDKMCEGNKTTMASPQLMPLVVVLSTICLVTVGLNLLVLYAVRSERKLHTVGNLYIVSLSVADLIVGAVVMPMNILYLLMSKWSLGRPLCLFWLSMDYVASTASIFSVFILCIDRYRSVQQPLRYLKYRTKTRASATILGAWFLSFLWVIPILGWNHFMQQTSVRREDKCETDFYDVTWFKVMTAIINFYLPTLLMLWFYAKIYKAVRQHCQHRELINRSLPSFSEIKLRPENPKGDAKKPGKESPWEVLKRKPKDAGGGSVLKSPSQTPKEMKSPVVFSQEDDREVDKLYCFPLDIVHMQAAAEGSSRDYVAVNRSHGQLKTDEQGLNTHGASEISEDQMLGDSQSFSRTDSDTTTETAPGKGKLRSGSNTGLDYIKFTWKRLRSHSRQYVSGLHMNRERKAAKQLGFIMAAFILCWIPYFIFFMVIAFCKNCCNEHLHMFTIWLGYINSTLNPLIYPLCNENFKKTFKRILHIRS
D(1B) dopamine receptor (Homo sapiens), sequence (P21918 whole entry): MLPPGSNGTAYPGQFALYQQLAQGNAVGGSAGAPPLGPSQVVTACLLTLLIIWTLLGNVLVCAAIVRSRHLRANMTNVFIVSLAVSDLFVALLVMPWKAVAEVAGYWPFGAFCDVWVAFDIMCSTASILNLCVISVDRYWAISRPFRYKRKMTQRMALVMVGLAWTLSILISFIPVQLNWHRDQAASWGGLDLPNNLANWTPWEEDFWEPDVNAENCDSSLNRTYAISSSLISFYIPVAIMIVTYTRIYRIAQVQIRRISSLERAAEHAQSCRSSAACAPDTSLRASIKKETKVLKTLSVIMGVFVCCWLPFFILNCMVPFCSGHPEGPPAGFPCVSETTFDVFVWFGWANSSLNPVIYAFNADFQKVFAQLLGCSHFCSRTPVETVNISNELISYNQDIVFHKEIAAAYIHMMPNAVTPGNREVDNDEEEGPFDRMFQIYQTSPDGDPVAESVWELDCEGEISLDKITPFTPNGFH
5-hydroxytryptamine receptor 7 (Homo sapiens), sequence (P34969 whole entry): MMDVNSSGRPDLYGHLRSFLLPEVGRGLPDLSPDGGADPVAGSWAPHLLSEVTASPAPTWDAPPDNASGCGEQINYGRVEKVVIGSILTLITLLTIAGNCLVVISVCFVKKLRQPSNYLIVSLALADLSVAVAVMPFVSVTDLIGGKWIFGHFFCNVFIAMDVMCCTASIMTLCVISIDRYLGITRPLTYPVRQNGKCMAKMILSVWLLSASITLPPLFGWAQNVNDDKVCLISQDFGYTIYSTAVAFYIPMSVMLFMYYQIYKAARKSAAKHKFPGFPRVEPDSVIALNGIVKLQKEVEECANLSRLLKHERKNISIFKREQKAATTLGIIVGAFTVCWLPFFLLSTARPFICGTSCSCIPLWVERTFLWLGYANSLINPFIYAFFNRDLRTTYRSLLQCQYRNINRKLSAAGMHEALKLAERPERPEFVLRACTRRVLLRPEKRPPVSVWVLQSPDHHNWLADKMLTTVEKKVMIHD
Procathepsin L (Homo sapiens), sequence (P07711 114-333 limits assumed): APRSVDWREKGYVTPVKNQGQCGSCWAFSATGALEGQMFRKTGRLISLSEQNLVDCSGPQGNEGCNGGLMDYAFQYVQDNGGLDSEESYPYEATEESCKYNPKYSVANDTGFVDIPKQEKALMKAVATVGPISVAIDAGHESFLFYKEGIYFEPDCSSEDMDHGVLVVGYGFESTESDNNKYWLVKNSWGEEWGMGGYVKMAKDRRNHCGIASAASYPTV
Endothelin-converting enzyme 1 (Homo sapiens), sequence (P42892 whole entry): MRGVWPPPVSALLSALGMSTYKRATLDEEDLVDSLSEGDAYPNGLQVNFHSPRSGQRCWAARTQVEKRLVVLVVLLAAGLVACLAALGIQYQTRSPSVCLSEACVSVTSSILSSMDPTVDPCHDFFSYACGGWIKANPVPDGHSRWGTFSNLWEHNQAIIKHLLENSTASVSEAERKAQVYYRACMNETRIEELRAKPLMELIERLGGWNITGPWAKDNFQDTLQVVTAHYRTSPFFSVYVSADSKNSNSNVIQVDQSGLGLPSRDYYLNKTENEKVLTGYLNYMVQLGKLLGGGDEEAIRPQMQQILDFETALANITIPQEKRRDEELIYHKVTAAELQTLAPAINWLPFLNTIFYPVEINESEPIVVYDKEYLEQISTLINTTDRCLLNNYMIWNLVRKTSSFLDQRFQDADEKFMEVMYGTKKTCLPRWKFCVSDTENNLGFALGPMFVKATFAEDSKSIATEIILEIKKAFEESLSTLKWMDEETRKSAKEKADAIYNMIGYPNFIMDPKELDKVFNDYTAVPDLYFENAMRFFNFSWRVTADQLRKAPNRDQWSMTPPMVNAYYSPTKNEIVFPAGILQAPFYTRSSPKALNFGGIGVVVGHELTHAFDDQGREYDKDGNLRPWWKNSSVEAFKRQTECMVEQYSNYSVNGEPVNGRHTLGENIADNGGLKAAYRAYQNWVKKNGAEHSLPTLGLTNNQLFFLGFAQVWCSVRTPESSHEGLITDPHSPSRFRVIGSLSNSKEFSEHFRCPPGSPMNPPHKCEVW
Prostaglandin G/H synthase 2 (Homo sapiens), sequence (P35354 whole entry): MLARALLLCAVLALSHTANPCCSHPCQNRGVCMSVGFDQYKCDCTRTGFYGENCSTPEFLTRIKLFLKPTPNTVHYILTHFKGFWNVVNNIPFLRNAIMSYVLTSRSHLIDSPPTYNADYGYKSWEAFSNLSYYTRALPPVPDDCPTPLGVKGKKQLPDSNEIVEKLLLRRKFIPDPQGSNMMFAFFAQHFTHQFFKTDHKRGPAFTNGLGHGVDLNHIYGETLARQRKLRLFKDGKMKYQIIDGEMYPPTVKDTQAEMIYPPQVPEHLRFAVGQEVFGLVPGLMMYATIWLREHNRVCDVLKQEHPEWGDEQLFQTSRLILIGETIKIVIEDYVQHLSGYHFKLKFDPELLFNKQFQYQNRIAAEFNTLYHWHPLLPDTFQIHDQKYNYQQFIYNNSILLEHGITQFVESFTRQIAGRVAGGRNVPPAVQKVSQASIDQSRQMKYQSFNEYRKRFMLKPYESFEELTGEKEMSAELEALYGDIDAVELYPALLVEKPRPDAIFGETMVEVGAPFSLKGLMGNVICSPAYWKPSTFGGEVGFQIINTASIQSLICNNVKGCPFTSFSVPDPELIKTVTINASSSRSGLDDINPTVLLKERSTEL
Caspase-1 (Homo sapiens), sequence (P29466 120-297 limits assumed): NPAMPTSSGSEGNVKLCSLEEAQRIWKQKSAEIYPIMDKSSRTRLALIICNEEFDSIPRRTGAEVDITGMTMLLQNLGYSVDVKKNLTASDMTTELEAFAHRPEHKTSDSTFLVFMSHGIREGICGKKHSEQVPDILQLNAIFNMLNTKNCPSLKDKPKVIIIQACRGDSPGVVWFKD
Caspase-1 (Homo sapiens), sequence (P29466 317-404 limits assumed): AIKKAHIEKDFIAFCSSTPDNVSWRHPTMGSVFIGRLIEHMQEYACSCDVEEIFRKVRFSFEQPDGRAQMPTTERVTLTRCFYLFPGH
Alpha-2B adrenergic receptor (Homo sapiens), sequence (P18089 whole entry): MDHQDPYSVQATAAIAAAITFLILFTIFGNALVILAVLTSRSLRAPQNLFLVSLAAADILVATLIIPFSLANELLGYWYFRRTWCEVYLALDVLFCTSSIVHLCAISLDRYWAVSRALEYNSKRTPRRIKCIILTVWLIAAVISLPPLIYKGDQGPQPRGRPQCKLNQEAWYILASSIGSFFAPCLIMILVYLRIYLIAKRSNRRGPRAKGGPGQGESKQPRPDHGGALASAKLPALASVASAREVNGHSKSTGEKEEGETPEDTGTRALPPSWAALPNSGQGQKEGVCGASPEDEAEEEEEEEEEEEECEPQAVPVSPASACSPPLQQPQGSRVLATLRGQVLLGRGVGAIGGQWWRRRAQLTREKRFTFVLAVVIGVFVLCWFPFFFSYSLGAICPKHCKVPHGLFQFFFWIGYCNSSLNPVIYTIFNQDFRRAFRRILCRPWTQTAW

IC50 (Chymase): 198 nM (active)
inhibition [24]: 8.83%
inhibition [25]: 52.9%
inhibition [26]: -9.73%
inhibition [27]: 27.2%
inhibition [28]: 20.3%
inhibition [29]: -1.4%
inhibition [30]: 22.2%
inhibition [31]: 31.5%
inhibition [32]: 2.82%
inhibition [33]: 6.86%
inhibition [34]: 14.1%
inhibition [35]: -4.71%
inhibition [36]: 0.56%
inhibition [37]: 8.69%
inhibition [38]: 9.09%
inhibition [39]: 8.73%
inhibition [40]: -6.54%
SMILES: CC[C@H](CC(=O)O)n1c(=O)c2ncccc2n(Cc2cn(C)c3cc(C)cc(C)c23)c1=O [BI-1942]
residual activity [1]: 101%
residual activity [2]: 89%
residual activity [3]: 102%
residual activity [4]: 79%
residual activity [5]: 100%
residual activity [6]: 97%
residual activity [7]: 99%
residual activity [8]: 93%
residual activity (Caspase-1 (Homo sapiens)): 103%
residual activity [9]: 111%
residual activity (Caspase-3 (Homo sapiens)): 97%
residual activity [10]: 99%
residual activity [11]: 118%
residual activity [12]: 106%
residual activity [13]: 98%
residual activity [14]: 92%
residual activity [15]: 101%
residual activity [16]: 107%
residual activity [17]: 82%
residual activity [18]: 101%
residual activity [19]: 100%
residual activity [20]: 114%
residual activity [21]: 98%
residual activity [22]: 96%
residual activity (Rattus norvegicus): 97%
residual activity [23]: 106%
residual activity (Trypsin (Homo sapiens)): 108%
